Laboratory results: ChEMBL document CHEMBL1201862, “PubChem BioAssay data set” (2004)
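Dose response: 5 concentrations. Exposure: 48 h. Format: 96-well plates. Endpoint: linear interpolation; highest concentration if not reached. Abbreviation: GI50, concentration required for 50% inhibition of growth.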 Active and inactive are the calls of the source. No stated cut-off is given here; in the data, active = GI50 up to about 1.1 µM and inactive = higher.

Experiments:
Experiment in all cases: NCI anticancer screen, dose series, 48 h
A549 = system: A549
HCC 2998 = system: HCC 2998
HCT-116 = system: HCT-116
HOP-62 = system: HOP-62
KM12 = system: KM12
LOX IMVI = system: LOX IMVI
NCI-H23 = system: NCI-H23
NCI-H460 = system: NCI-H460
NCI-H522 = system: NCI-H522
OVCAR-3 = system: OVCAR-3
OVCAR-4 = system: OVCAR-4
RPMI-8226 = system: RPMI-8226
SF-295 = system: SF-295
SF-539 = system: SF-539
SK-MEL-2 = system: SK-MEL-2
SK-OV-3 = system: SK-OV-3
SNB-19 = system: SNB-19
SR = system: SR
PC-3 = system: PC-3

Structure (SMILES) | GI50 (A549) | GI50 (HCC 2998) | GI50 (HCT-116) | GI50 (HOP-62) | GI50 (KM12) | GI50 (LOX IMVI) | GI50 (NCI-H23) | GI50 (NCI-H460) | GI50 (NCI-H522) | GI50 (OVCAR-3) | GI50 (OVCAR-4) | GI50 (RPMI-8226) | GI50 (SF-295) | GI50 (SF-539) | GI50 (SK-MEL-2) | GI50 (SK-OV-3) | GI50 (SNB-19) | GI50 (SR) | GI50 (PC-3)
CCn1c(CSc2nc(-c3ccccc3)c(-c3ccccc3)[nH]2)n[nH]c1=S | > 100 µM (inactive) | 0.0243 µM (active) | > 100 µM (inactive) | > 100 µM (inactive) | 51.4 µM (inactive) | > 100 µM (inactive) | > 100 µM (inactive) | > 100 µM (inactive) | > 100 µM (inactive) | > 100 µM (inactive) | > 100 µM (inactive) | > 100 µM (inactive) | > 100 µM (inactive) | > 100 µM (inactive) | > 100 µM (inactive) | > 100 µM (inactive) | > 100 µM (inactive) | > 100 µM (inactive) | –
O=C(c1ccc(Cl)cc1)c1ccc(OCCCOc2ccc(C(=O)c3ccc(Cl)cc3)cc2)cc1 | > 100 µM (inactive) | > 100 µM (inactive) | > 100 µM (inactive) | > 100 µM (inactive) | > 100 µM (inactive) | > 100 µM (inactive) | > 100 µM (inactive) | > 100 µM (inactive) | > 100 µM (inactive) | > 100 µM (inactive) | > 100 µM (inactive) | > 100 µM (inactive) | > 100 µM (inactive) | > 100 µM (inactive) | > 100 µM (inactive) | > 100 µM (inactive) | > 100 µM (inactive) | > 100 µM (inactive) | –
COc1ccc(C2=C[C@]3(O)CCCN3C[C@@H]2c2ccc(OC)c(OC)c2)cc1 | < 0.0001 µM (active) | > 0.01 µM (active) | < 0.0001 µM (active) | < 0.0001 µM (active) | < 0.0001 µM (active) | < 0.0001 µM (active) | < 0.0001 µM (active) | < 0.0001 µM (active) | < 0.0001 µM (active) | < 0.0001 µM (active) | > 0.01 µM (active) | > 0.01 µM (active) | < 0.0001 µM (active) | < 0.0001 µM (active) | < 0.0001 µM (active) | < 0.0001 µM (active) | < 0.0001 µM (active) | < 0.0001 µM (active) | –
Nc1ccc2nc(-c3cccc(C(F)(F)F)c3)cc(O)c2c1 | 71.4 µM (inactive) | 60.1 µM (inactive) | – | 47.2 µM (inactive) | 36.2 µM (inactive) | 51.9 µM (inactive) | 54.6 µM (inactive) | 29.8 µM (inactive) | 61.8 µM (inactive) | – | – | 38.5 µM (inactive) | – | 19.6 µM (inactive) | – | 44.8 µM (inactive) | 46.1 µM (inactive) | 25.1 µM (inactive) | 23.8 µM (inactive)
Cc1cc([N+](=O)[O-])c(S(=O)(=O)c2ccccc2)c([N+](=O)[O-])c1 | 23.6 µM (inactive) | 21.2 µM (inactive) | 9.75 µM (inactive) | 21.7 µM (inactive) | 17.1 µM (inactive) | 2.57 µM (inactive) | 8.53 µM (inactive) | 13.4 µM (inactive) | 1.73 µM (inactive) | 5.62 µM (inactive) | 7.83 µM (inactive) | 14.8 µM (inactive) | 18.8 µM (inactive) | 12.7 µM (inactive) | 20 µM (inactive) | 24.8 µM (inactive) | 18.5 µM (inactive) | 4.59 µM (inactive) | –
C[C@@H]1CC[C@@H](C)[C@](C)(CCc2ccoc2)C/C=C\C=C/1C(=O)O | > 50 µM (inactive) | > 50 µM (inactive) | > 50 µM (inactive) | > 50 µM (inactive) | > 50 µM (inactive) | > 50 µM (inactive) | 32.1 µM (inactive) | > 50 µM (inactive) | – | > 50 µM (inactive) | > 50 µM (inactive) | – | > 50 µM (inactive) | > 50 µM (inactive) | > 50 µM (inactive) | > 50 µM (inactive) | > 50 µM (inactive) | > 50 µM (inactive) | > 50 µM (inactive)
